The values that follow come from US20210072244A1, “METHODS AND COMPOSITIONS FOR TREATING MELANOMA RESISTANT” (INSERM (INSTITUT NATIONAL DE LA SANTÉ ET DE LA RECHERCHE …, priority 2018, published 2021).

Read-outs that look alike come from different tables or passages of the source.

Series [1] concerns BRAFi-resistant A375 (A375R) and WM9 (WM9R) melanoma cells. The series can be described thus: Proliferation and PLX4032 sensitivity of BRAFi-resistant melanoma cells. Type of series: cell-based, human. The procedure: (§1) The cells were seeded onto 12-well dishes (10×10^3 cells), and at 48 h post transfection or treatment, the cells were trypsinized from days 1 to 4, counted in triplicate using a hemocytometer. The experiments were performed at least three times.

Series [2] relates to BRAFi-resistant WM9 melanoma cell xenografts. The series can be described thus: PLX4032-resistant WM9 (WM9R) xenograft growth in nude mice. Type of series: in vivo. Conditions: FIG. 5F. The procedure: (§2) Animal experiments were performed in accordance with French law and approved by a local institutional ethical committee. The animals were maintained in a temperature controlled facility (22° C.) on a 12-h light/dark cycle and provided free access to food (standard laboratory chow diet from UAR, Epinay-S/Orge, France). Human WM9 melanoma cells, responsive or resistant to PLX4032 (2×10^6 cells), were subcutaneously inoculated into 8-week-old female, immune-deficient, athymic, nude FOXN1nu mice (Harlan Laboratory). When the tumors became palpable (0.1-0.2 cm3), the mice received an intraperitoneal injection of PLX4032 (25 mg/kg), FK866 (15 mg/kg) or both drugs dissolved in a mixture of Labrafil M1944 Cs, dimethylacetamide, and Tween 80 (90:9:1, v/v/v) three times per week. Control mice were injected with Labrafil alone. The growth tumor curves were determined after measuring the tumor volume using the equation V=(L×W2)/2. At the end of the experiment, the mice were euthanized by cervical dislocation, and the tumors were harvested for immunofluorescence.

For series [3], the system named is BRAFV600E human melanoma cells. As to the kind of experiment: Cell proliferation / viability (cell counting), BRAFV600E cells. Type of series: cell-based. The procedure:
as §1

Series [4] relates to A375R melanoma cell xenografts. The series can be described thus: PLX4032-resistant A375 (A375R) xenograft growth in mice. Type of series: in vivo.
In series [5] the test system is NAMPT. As to the kind of experiment: NAMPT expression in melanoma cells (Western blot, QPCR). Type of series: cell-based, human. The procedure:
The proteins were visualized using the ECL system (Amersham).
The mRNA was isolated using TRIzol (Invitrogen) according to a standard procedure. QRT-PCR was performed using SYBR® Green I (Eurogentec, Seraing, Belgium) and Multiscribe Reverse Transcriptase (Applied Biosystems) and subsequently monitored using the ABI Prism 7900 Sequence Detection System (Applied Biosystems, Foster City, Calif.). The detection of the SB34 gene was used to normalize the results. Primer sequences for each cDNA were designed using either Primer Express Software (Applied Biosystems) or qPrimer depot (http://primerdepot.nci.nih.gov), and these sequences are available upon request.

Series [6] has as its system WM9 melanoma cell xenograft. The series can be described thus: WM9 melanoma xenograft growth in nude mice. Type of series: in vivo. Conditions: 15 mg/kg every two days, athymic nude mice, versus vehicle, FIG. 4C. The procedure:
as §2

The nature of series [7]: Body weight of treated mice. Type of series: in vivo. As to conditions: FK866 15 mg/kg, not shown. The procedure:
as §2

The subject of series [8] is intracellular NAD+ in melanoma cells. As to the kind of experiment: Intracellular NAD+ measurement (NAD/NADH Quantitation Kit). Type of series: cell-based, human. Conditions: for intracellular NAD+ levels: 5 μM, 24 h (FIG. 1B). The procedure: Human melanoma cell lines and short-term cultures derived from different patients with metastatic malignant melanoma cells were grown in DMEM supplemented with 7% FBS at 37° C. in a humidified atmosphere containing 5% CO2. PLX4032-sensitive and PLX4032-resistant melanoma cells were previously described (Bonet et al. 2012; Ohanna et al. 2014). Lipofectamine™ RNAiMAX and opti-MEM medium were purchased from Invitrogen (San Diego, Calif., USA). FK866 was obtained from Sigma, U0126 and GSK1120212 were purchased from Euromedex, and PD98059 and SCH77294 were obtained from Selleck Chemicals. The STAT5 inhibitor (CAS 285986-31-4) was purchased from Sigma. Intracellular NAD+ was measured using the NAD/NADH Quantitation Kit from Sigma according to the manufacturer's instructions.

The subject of the next series is ERK. As to the kind of experiment: ERK phosphorylation (Western blot). As to conditions: for ERK phosphorylation levels: A375 melanoma cells, data not shown; for ERK phosphorylation: A375 and WM9 cells. Type of series: cell-based, human. The procedure:
(§3) Western blotting was performed as previously described (Hilmi et al. 2008; Bertolotto et al. 2011). Briefly, cell lysates (30 μg) were separated using SDS-PAGE, transferred onto a PVDF membrane and subsequently exposed to the appropriate antibodies, anti-ERK2 (Santa Cruz Biotechnology, sc-1647 clone D-2), anti-phospho-ERK1/2 (Thr202/Tyr204) (Cell Signaling Technology Inc., #2370), anti-BRAF (Santa Cruz Biotechnology, sc-5284 clone F-7), anti-NAMPT (Sigma, #B5812), antiphospho-STAT5 (Tyr694) (Ozyme #9351), anti-STAT5 (Ozyme #9363), and anti-HSP90 (Santa Cruz biotechnology, #sc-13119). The proteins were visualized using the ECL system (Amersham). The western blots shown are representative of at least 3 independent experiments.

The test system of series [9] is NAMPT. Conditions: public microarray data GSE51115, melanoma cell lines; cited from earlier work.
A further series relates to human NAMPT promoter. The series can be described thus: NAMPT promoter luciferase reporter assay. In kind it is cell-based.
A further series concerns STAT5. The series can be described thus: STAT5 phosphorylation (Western blot). Type of series: cell-based, human. As to conditions: A375 and WM9 cells. The procedure:
as §3

In series [10] the test system is UACC62 and WM9 human melanoma cell lines (BRAFV600E). As to the kind of experiment: Global metabolic profiling by UPLC-MS/MS. Type of series: cell-based. Conditions: FIG. 1A. The procedure:
Briefly, samples were prepared using the automated MicroLab STAR® system (Hamilton Company). Recovery standards were added prior to the first step in the extraction process for QC purposes. Cell lysates were precipitated using methanol under vigorous shaking for 2 min, followed by centrifugation. The resulting extract was divided into five fractions: two samples for analysis using two separate reversephase (RP)/UPLC-MS/MS methods with positive ion mode electrospray ionization (ESI), one sample for analysis through RP/UPLC-MS/MS with negative ion mode ESI, one sample for analysis through HILIC/UPLC-MS/MS with negative ion mode ESI, and one sample was reserved for backup. The samples were briefly placed on a TurboVap® (Zymark) to remove the organic solvent. The sample extracts were stored overnight under nitrogen prior to preparation for analysis. Chromatography analyses were performed using Waters ACQUITY ultra-performance liquid chromatography (UPLC) and a Thermo Scientific Q-Exactive high resolution/accurate mass spectrometer interfaced with a heated electrospray ionization (HESI-II) source and Orbitrap mass analyzer operated at 35,000 mass resolution. The sample extract was dried and subsequently reconstituted in solvents compatible to each method (Miller et al. 2015). […]

Series [11] deals with BRAFWT human melanoma cells. The series can be described thus: Cell proliferation (cell counting), BRAFWT cells. As to conditions: data not shown. In kind it is cell-based. The procedure:
as §1

Setting [12] is: A375 melanoma cells, data not shown.

Take `O=C(/C=C/c1cccnc1)NCCCCC1CCN(C(=O)c2ccccc2)CC1` [FK866]: the “PLX4032 sensitivity in BRAFi-resistant cells” value in [1] (A375R and WM9R, PLX4032 5 μM) was “restored PLX4032 sensitivity”. Further, the melanoma cell death result in series [1] (BRAFi-resistant melanoma cells, both in vitro and in vivo) is recorded as “caused melanoma cell death”. In addition, the “tumor growth of BRAFi-resistant WM9 xenografts” value in series [2] is “inhibited tumor growth”. Besides, in [3] (A375 and WM9 melanoma cells, counted each day, FIG. 4B), the cell proliferation entry is “impaired cell proliferation”. Besides, the “melanoma progression (A375R xenograft)” value in series [4] (FK866 1.5 mg/kg and 15 mg/kg, FIG. 5E) is reported as “dose-dependently reduced”. The “NAD+ in treated tumors” value in [4] (FK866-treated tumors, data not shown) was “reduction”. Moreover, the NAMPT expression result in the series on NAMPT [5] (A375 and WM9 cells, NAMPT siRNA or FK866) is listed as “did not affect”. Besides, the “WM9 melanoma cell xenograft growth” value in [6] was “impaired”. The “weight loss in the treated mice” value in series [7] is “no weight loss”. The “intracellular levels of NAD+” value in [8] (A375 and WM9 melanoma cell lines, FIG. 4A) is “dramatically decreased”.
With `CC(=O)Nc1cccc(-n2c(=O)n(C3CC3)c(=O)c3c(Nc4ccc(I)cc4F)n(C)c(=O)c(C)c32)c1` [GSK1120212], the NAMPT expression result in the series with NAMPT [5] (setting [12]) is recorded as “inhibition of NAMPT expression”. Besides, the ERK phosphorylation levels entry in the series on ERK is reported as “inhibition of ERK phosphorylation levels”.
On the same counts, the results for `COc1cccc(-c2cc(=O)c3ccccc3o2)c1N` [PD98059] are “inhibition of NAMPT expression” and “inhibition of ERK phosphorylation levels”.
In the case of `O=C(NOC[C@H](O)CO)c1ccc(F)c(F)c1Nc1ccc(I)cc1F` [PD0325901], the NAMPT expression entry in the series on NAMPT [9] is reported as “inhibition of NAMPT expression”.
With `CCCS(=O)(=O)Nc1ccc(F)c(C(=O)c2c[nH]c3ncc(-c4ccc(Cl)cc4)cc23)c1F` [PLX4032], the “tumor growth of BRAFi-resistant WM9 xenografts” value in series [2] is “not affected”. Further, in [3] (A375 and WM9 melanoma cells, 5 μM, 72 h (FIG. 5B)), the viability result is “inhibited the viability”. For the same compound, the cell proliferation result in [3] (BRAFV600E human melanoma cells, data not shown) is “inhibited cell proliferation”; in series [11], “not in BRAFWT human melanoma cells”. The “NAMPT expression, protein level” value with NAMPT [5] (4 different BRAFV600E melanoma cells, data not shown) is “reduced NAMPT expression”. In the series with NAMPT [5] (BRAFV600E melanoma cells, QPCR, FIG. 2A), the “NAMPT expression, mRNA level” value is given as “reduced NAMPT expression”. In the series on NAMPT [5] (BRAFWT human melanoma cells, data not shown), the NAMPT expression result is recorded as “No inhibition”. Besides, in the series on human NAMPT promoter (A375 and WM9 cells, FIGS. 3A-B), the NAMPT promoter activity entry is “dose-dependent decrease”. Further, in the series on human NAMPT promoter (A375 cells, 48 h, p<0.0034), the “NAMPT promoter activity, significance over doses” value was “all the PLX4032 doses lead to significant decrease”. Besides, the “PLX4032 dose giving significant decrease in NAMPT promoter activity” value with human NAMPT promoter (WM9 cells, 48 h, p<0.014, in µM) is > 0.005. Also, in the series on STAT5, the STAT5 phosphorylation entry is reported as “inhibited”. Further, in [10], the “nicotinamide adenine dinucleotide (NAD+) levels” value is reported as “reduced”. In addition, in the series on ERK, the ERK phosphorylation entry is reported as “inhibited”. The “intracellular NAD+ levels” value is “not in BRAFWT human melanoma cells” in [8] (BRAFWT human melanoma cells); “reduced intracellular NAD+ levels” in series [8] (all BRAFV600E-mutated melanoma cell lines and short-term cultures).
For `O=C(Nc1ccc2[nH]nc(-c3ccncc3)c2c1)[C@@H]1CCN(CC(=O)N2CCN(c3ccc(-c4ncccn4)cc3)CC2)C1` [SCH77294], the NAMPT expression result in the series on NAMPT [5] (setting [12]) was “inhibition of NAMPT expression”. For the same compound, the ERK phosphorylation levels entry in the series on ERK is listed as “inhibition of ERK phosphorylation levels”.
Take `O=C(N/N=C/c1coc2ccccc2c1=O)c1cccnc1` [STAT5 inhibitor]: in the series on NAMPT [5] (BRAF and STAT5 inhibitors, data not shown), the NAMPT expression entry was “decreased”. In the series on human NAMPT promoter (501MEL cells transfected with BRAFV600E vector, 100 μM, 48 h (FIG. 3E)), the “BRAFV600E-stimulated NAMPT promoter activity” value was “decreased”. Further, the “basal NAMPT promoter activity” value with human NAMPT promoter (501MEL cells, control vector, 100 μM, 48 h (FIG. 3E)) is listed as “decreased”. Further, in the series on STAT5, the STAT5 phosphorylation entry is on record as “efficiently reduced”. Further, the ERK phosphorylation result in the series with ERK was “did not affect”. Besides, the “NAD+ levels” value in series [8] (A375 and WM9 cells exposed to STAT5 inhibitor, FIG. 3F) was “decreased”.
For `N#CC(=C(/N)Sc1ccccc1N)/C(C#N)=C(\N)Sc1ccccc1N` [U0126], the NAMPT expression result with NAMPT [5] (setting [12]) is on record as “inhibition of NAMPT expression”. In the series on ERK, the ERK phosphorylation levels entry is “inhibition of ERK phosphorylation levels”.
